Experimental data published in patent US8518956B2, “1-(1-(2-ethoxyethyl)-3-ethyl-7-(4-methylpyridin-2-ylamino)-1H-pyrazolo[4,3-d]pyrimidin-5-yl) piperidine-4-carboxylic acid and salts thereof” (priority 2005, dated 2013).

Molecular target: T1, PDE5 enzyme (Homo sapiens, UniProt O76074)
T1 construct: The PDE5 enzyme isolated from human platelets; from tissue; host or cells: human platelets
Test: Method 1: Human Platelet PDE5 Enzyme Inhibition Scintillation Proximity Assay
Assay type: biochemical
Conditions: METHOD 1: PDE5 IC50, Table B, WO2004096810 examples
Description: Method 1: Human Platelet PDE5 Enzyme Inhibition Scintillation Proximity Assay
An in vitro assay can be used to evaluate the inhibition of PDE5 enzyme activity by a test compound.
The PDE5 enzyme for use in the assay can be obtained from human platelets by appropriate modification of the method of Thompson, W J et al.; Biochemistry 18(23), 5228-5237, 1979, as described by Ballard S A et al.; J. Urology 159(6), 2164-2171, 1998. The PDE5 enzyme isolated from human platelets can be used to catalyze the hydrolysis of [^3H]cGMP (Amersham Biosciences) to 5′ nucleotide [^3H]GMP. The [^3H]GMP binds to yttrium silicate SPA beads (Amersham Biosciences) and is detected by scintillation counting. More specifically, the effect of the test compound at different concentrations can be evaluated in the assay by contacting the compound with a fixed amount of PDE5 enzyme in the presence of substrate (cGMP or cAMP in a 3:1 ratio unlabelled to [^3H]-labeled). Scintillation counting can be used as described above to determine relative PDE5 enzyme activity. The inhibition of PDE5 enzyme activity is then calculated relative to total PDE5 enzyme activity of uninhibited controls.
PDE5 IC50 Assay: 96-well microtiter plate format
• Buffer A: 20 mM Tris-HCl, 5 mM MgCl2, pH 7.4 • Buffer B: 2 mg/ml BSA in Buffer A (enzyme buffer) • cGMP substrate: Final concentration of 500 nM in assay The amount of ^3H-labeled substrate added depends upon the specific activity of [^3H]cGMP, and the cGMP substrate is diluted with a 10 mM stock of cold cGMP in Buffer A for a final substrate concentration of 500 nM in the assay. • PDE enzyme: Prepared in Buffer B. The dilution factor is determined by enzyme activity. • SPA beads: 20 mg/ml suspension prepared in dH2O.
Stocks of standard and test compounds are prepared at 5 mM in 100% DMSO. The compound is serially diluted in a dilution plate using a 10-point ½ log dilution format. 2 μl of the compound dilution is added in duplicate to the wells of the assay plate. 2 μl of 100% DMSO are added to designated control wells. 25 μl of Buffer A are added to all wells. 25 μl of Buffer B are added to the negative control wells. 25 μl of enzyme are added to the remaining wells. 50 μl of substrate are added to each well. Plates are sealed and incubated for 60 minutes on a plate shaker at 30 C. 50 plof SPA beads are added to stop the reaction. The plates are again sealed and shaken for 15 minutes to allow the beads to bind the GMP product. The beads are allowed to settle for 30 minutes and then read on a NXT TopCount scintillation counter. Data are analyzed with a curve fitting application for plate-based screening. Percent inhibition in this assay is calculated as follows: Inhibition (%)=[(mean maximum−compound value/(mean maximum−mean minimum)]×100.
The IC50 value is determined from sigmoid dose-response curves of enzyme activity versus compound concentration.

| IC50 | Structure (SMILES) |
| --- | --- |
| 2100 nM | Cc1ccnc(Nc2nc(N3CCNCC3)nc3c(C)nn(CC(F)(F)F)c23)c1 [WO2004096810 Example 170] |
| 2.95 nM | Cc1ccnc(Nc2nc(N3CCNCC3)nc3c(C)nn(Cc4ccccn4)c23)c1 [WO2004096810 Example 167] |
| 18.3 nM | COCCn1nc(C(C)C)c2nc(N3CCNCC3)nc(Nc3ccc(C)cn3)c21 [WO2004096810 Example 179] |
| 5.3 nM | CCOCCn1nc(COC)c2nc(N3CC(N(C)C)C3)nc(Nc3cc(C)ccn3)c21 [WO2004096810 Example 215] |
| 3.6 nM | CCOCCn1nc(C)c2nc(N3CCN[C@H](C)C3)nc(Nc3ccnc(C)n3)c21 [WO2004096810 Example 220] |
| 1.83 nM | CCOCCn1nc(C)c2nc(N3CCN[C@H](C)C3)nc(Nc3cc(C)ncn3)c21 [WO2004096810 Example 26] |
| 737 nM | CCCc1nn(C)c2c(Nc3ccc(C)cn3)nc(N3CCC(O)CC3)nc12 [WO2004096810 Example 35] |
| 1940 nM | CCCc1nn(C)c2c(Nc3ccncn3)nc(N3CCN(C)CC3)nc12 [WO2004096810 Example 80] |
| 248 nM | CCCc1nn(C)c2c(Nc3ccc(CC)cn3)nc(N3CCNCC3)nc12 [WO2004096810 Example 123] |
| 1.74 nM | CCOCCn1nc(C)c2nc(N3CCN[C@@H](C)C3)nc(Nc3ccncn3)c21 [WO2004096810 Example 12] |
| 12.1 nM | CCc1nn(CCOC)c2c(Nc3cc(C)ccn3)nc(N3CCNCC3)nc12 [WO2004096810 Example 152] |
| 182 nM | CCCc1nn(C)c2c(Nc3cc(C)cc(C)n3)nc(N3CCNCC3)nc12 [WO2004096810 Example 125] |
| 1450 nM | CCCc1nn(C)c2c(Nc3ccc(C)cn3)nc(N3CCCCC3)nc12 [WO2004096810 Example 36] |
| 0.81 nM | Cc1ccnc(Nc2nc(N3CCNCC3)nc3c(C)nn(CC4CCCCO4)c23)c1 (centres unmarked) [WO2004096810 Example 168] |
| 0.09 nM | CCOCCn1nc(CC)c2nc(N3CCN[C@H](C)C3)nc(Nc3ccncn3)c21 [WO2004096810 Example 15] |
| 0.42 nM | CCOCCn1nc(COC)c2nc(N3CCC[C@H]3CO)nc(Nc3cc(C)ccn3)c21 [WO2004096810 Example 213] |
| 134 nM | CCCc1nn(C)c2c(Nc3cc(OC)ncn3)nc(N3CCNCC3)nc12 [WO2004096810 Example 83] |
| 10 nM | CCOCCn1nc(C)c2nc(N3CCN[C@H](C)C3)nc(Nc3cc(C)cc(C)n3)c21 [WO2004096810 Example 198] |
| 8.84 nM | CCCOCCn1nc(C)c2nc(N3CCN[C@H](C)C3)nc(Nc3cc(C)ccn3)c21 [WO2004096810 Example 4] |
| 341 nM | CCc1nn(CCOC)c2c(Nc3cc(C)n[nH]3)nc(N3CCNCC3)nc12 [WO2004096810 Example 180] |
| 25.8 nM | CCOCCn1nc(CC)c2nc(N3CCN[C@@H](C(C)C)C3)nc(Nc3ccncn3)c21 [WO2004096810 Example 18] |
| 247 nM | CCCc1nn(C)c2c(Nc3cc(OC)ncn3)nc(NC)nc12 [WO2004096810 Example 84] |
| 10.1 nM | CCOCCn1nc(C)c2nc(N3CCN[C@H](C)C3)nc(Nc3cc(C(F)(F)F)ccn3)c21 [WO2004096810 Example 222] |
| 0.49 nM | CCOCCn1nc(CC)c2nc(N3CCN[C@H](CC)C3)nc(Nc3ccncn3)c21 [WO2004096810 Example 19] |

The next lines start with the molecule.

| Structure (SMILES) | IC50 |
| --- | --- |
| CCOCCn1nc(COC)c2nc(N(C)CCO)nc(Nc3cc(C)ccn3)c21 [WO2004096810 Example 227] | 0.35 nM |
| CCOCCn1nc(C)c2nc(N(C)[C@@H]3CCN(C)C3)nc(Nc3ccncn3)c21 [WO2004096810 Example 157] | 16.7 nM |
| CCOCCn1nc(CC)c2nc(N3C[C@@H](C)NC[C@@H]3C)nc(Nc3cc(C)ccn3)c21 [WO2004096810 Example 148] | 4.39 nM |
| CCOCCn1nc(CO)c2nc(N(C)CC)nc(Nc3cc(C)ccn3)c21 [WO2004096810 Example 181] | 0.39 nM |
| CCOCCn1nc(C)c2nc(N3C[C@@H]4C[C@H]3CN4C)nc(Nc3ccncn3)c21 [WO2004096810 Example 210] | 82.7 nM |
| CCOCCn1nc(CO)c2nc(N(C)CC)nc(Nc3ccncn3)c21 [WO2004096810 Example 228] | 3.09 nM |
| CCOCCn1nc(C)c2nc(N3C[C@@H](C)NC[C@@H]3C)nc(Nc3ccc(C)cn3)c21 [WO2004096810 Example 146] | 32.1 nM |
| CCOCCn1nc(C)c2nc(N3C[C@@H](C)NC[C@@H]3C)nc(Nc3cc(C)ccn3)c21 [WO2004096810 Example 145] | 7.15 nM |
| CCOCCn1nc(C)c2nc(N(C)CCOC)nc(Nc3ccnc(C)n3)c21 [WO2004096810 Example 219] | 41 nM |
| CCOCCn1nc(C)c2nc(N(C)CCN(C)C)nc(Nc3ccncn3)c21 [WO2004096810 Example 216] | 60.9 nM |
| CCOCCn1nc(C)c2nc(N(C)CCO)nc(Nc3cc(C)ccn3)c21 [WO2004096810 Example 208] | 0.71 nM |
| CCOCCn1nc(C)c2nc(N(C)[C@H]3CCN(C)C3)nc(Nc3cc(C)ccn3)c21 [WO2004096810 Example 161] | 0.5 nM |
| COCCNc1nc(Nc2cc(C)ccn2)c2c(n1)c(C)nn2CCOC [WO2004096810 Example 93] | 31.1 nM |
| CCOCCn1nc(C)c2nc(N3CCN[C@H](C)C3)nc(Nc3ccc(OC)nc3)c21 [WO2004096810 Example 194] | 0.56 nM |
| COCCn1nc(C)c2nc(N(C)[C@@H]3CCN(C)C3)nc(Nc3cc(C)ccn3)c21 [WO2004096810 Example 155] | 13.4 nM |
| CCOCCn1nc(C)c2nc(N(C)CCOC)nc(Nc3cc(C)ccn3)c21 [WO2004096810 Example 207] | 1.55 nM |
| CCOCCn1nc(CO)c2nc(N(C)C)nc(Nc3cc(C)ccn3)c21 [WO2004096810 Example 182] | 4.03 nM |
| COCCn1nc(C)c2nc(N3C[C@@H](C)NC[C@@H]3C)nc(Nc3ccc(C)cn3)c21 [WO2004096810 Example 143] | 81.2 nM |
| CCOCCn1nc(COC)c2nc(N(C)CCOC)nc(Nc3cc(C)ccn3)c21 [WO2004096810 Example 226] | 0.83 nM |
| CCCc1nn(C)c2c(N(C)C3CCN(C)CC3)nc(NC)nc12 [WO2004096810 Example 130] | > 10000 nM |
| CCOCCn1nc(C)c2nc(N3C[C@H](C)NC[C@H]3C)nc(Nc3ccncn3)c21 [WO2004096810 Example 138] | 0.33 nM |
| CCOCCn1nc(C)c2nc(N3C[C@@H](C)NC[C@@H]3C)nc(Nc3ccncn3)c21 [WO2004096810 Example 147] | 2.46 nM |
| Cc1ccnc(Nc2nc(N3C[C@@H]4C[C@H]3CN4)nc3c(C)nn(CCOCC(F)(F)F)c23)c1 [WO2004096810 Example 231] | 10.3 nM |
| CCOCCn1nc(CC)c2nc(N(C)[C@@H]3CCN(C)C3)nc(Nc3cc(C)ccn3)c21 [WO2004096810 Example 158] | 0.71 nM |
| CCOCCn1nc(CC)c2nc(N(C)[C@@H]3CCN(C)C3)nc(Nc3ccc(C)cn3)c21 [WO2004096810 Example 159] | 16.3 nM |
| CCOCCn1nc(C)c2nc(N(C)CC)nc(Nc3ccncn3)c21 [WO2004096810 Example 217] | 2.55 nM |
| CCc1nn(CCOC)c2c(Nc3ccccn3)nc(N(C)CCO)nc12 [WO2004096810 Example 109] | 27.3 nM |
| CCOCCn1nc(C)c2nc(N3C[C@H](C)NC[C@H]3C)nc(Nc3cc(C)ccn3)c21 [WO2004096810 Example 136] | 1.09 nM |
| CCOCCn1nc(CC)c2nc(N3C[C@@H](C)NC[C@@H]3C)nc(Nc3ccc(C)cn3)c21 [WO2004096810 Example 149] | 34.8 nM |
